Reference: PubChem BioAssay AID1918933 (Molecular Pharmacology Branch, DTP, NCI, 2023)

System: 186277-243-T-J2-PDC complex spheroid viability
Assay: Anticancer human tumor 186277-243-T-J2-PDC patient-derived colon adenocarcinoma cell line growth inhibition
Settings: for IC50: curve of first compound; for viability, T/C: stronger effect = lower value
Text: Multicellular complex tumor spheroid response to LSD1 Inhibitor Iadademstat in combination with a variety of drugs and investigational agents in selected tumor cell lines
The current study was undertaken to assess response to LSD1 inhibitors in combination with standard-of-care drugs and investigational agents in solid tumor complex spheroid models as well as in the K-562 leukemia. Complex spheroids include a stromal component modeled by human endothelial cells (HUVEC) and fibroblasts modeled by human mesenchymal stem cells (MSCs). The concentration ranges selected for each drug and investigational agent were based upon clinically achievable concentrations if the clinical Cmax of the agent was known.
Compounds. The drugs and investigational agents used in this study are listed on Table 1. All of the agents used, including staurosporine (NSC755774) and gemcitabine (NSC613327), were obtained from the Developmental Therapeutics Program, NCI. FDA-approved anticancer drugs are available from the NCI at http://dtp.nci.nih.gov/branches/dscb/oncology_drugset_explanation.html. Drugs and investigational agents were >95% pure by proton nuclear magnetic resonance (NMR) and liquid chromatography/mass spectrometry (LC/MS). Stock solutions were prepared at 400x in DMSO, stored at -70 degrees C, and diluted in fresh medium prior to their use. The final concentration of DMSO in cell culture wells never exceeded 0.25% (v/v). The FDA-approved anticancer drug set is available from the Developmental Therapeutics Program at https://dtp.cancer.gov/organization/dscb/obtaining/available_plates.htm. All drugs and investigational agents were tested over a range starting from a high concentration at or near the clinical Cmax and decreasing in half-log increments. If the clinical Cmax for an agent had not been determined, the highest concentration tested was 10 microM.
Cell Lines. The patient-derived cancer cell (PDC) lines: 292921-168-R-J2-PDC, K24384-001-R-PDC, and 521955-158-R2-J5-PDC pancreatic carcinomas, 556581-035-R-J1 ovarian carcinoma, 324938-238-R-J1-PDC, 855422-203-R-J1-PDC and 883617-216-R-J1-PDC urothelial bladder carcinomas, 743489-274-T-PDC renal cell carcinoma, 138582-R-J1 Merkel cell tumor, K60290-347-R-J1 and K57222-313-R-J1-PDC glioblastomas, 653999-131-R-J2-PDC, LG0703-F948-PDC, and 349418-098-R-PDC non-small cell lung carcinomas, 885512-296-R-J2-PDC, 171881-019-R-J1-PDC breast carcinomas and 186277-243-T-J2-PDC and 233499-124-R-J2-PDC colon carcinomas were obtained from the NCI Patient-Derived Models Repository (PDMR, https://pdmr.cancer.gov). The established cell lines NCI/ADR-RES (RRID:CVCL_14520 and OVCAR-5 (RRID:CVCL_1628) ovarian carcinomas, 786-O (RRID:CVCL_1051) and A498 (RRID:CVCL_A498) renal cell carcinoma, NCI-H211 (ATCC, cat. CRL-5824; RRID:CVCL_1529), NCI-H196 (ATCC, cat. CRL-5823, RRID:CVCL_1509), SW 1271 (ATCC, cat. CRL-2177, RRID:CVCL_1716) and NCI-H1876 (ATCC, cat. CRL-5902, RRID:CVCL_1503) small cell lung carcinomas, MDA-MB-231 (RRID:CVCL_0062) and MDA-MB-468 (RRID:CVCL_0419)breast carcinomas (10-12). Pooled donor human umbilical vein endothelial cells (HUVEC, Lonza, cat. CC-2519) and human mesenchymal stem cells (hMSC, Lonza, cat. PT-2501) were purchased from Lonza (Walkersville, MD).
Cell Culture. All cells were maintained in an incubator at 37 degrees C and 5% CO2 with 95% humidity. The PDC lines were cultured according to standard operating procedures established by the NCI PDMR (https://pdmr.cancer.gov). Briefly all PDCs were thawed and cultured in Matrigel-coated flasks prepared with a working solution of 1X Ham's F-12 nutrient mix, without supplementation (Invitrogen, Waltham, MA, cat. 11765054), 100 U/mL penicillin-streptomycin (Invitrogen, cat. 15140122), and 2.5% Matrigel (Corning Inc., Corning, NY, cat. 354248) for the first three passages. […]
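Note: 7 day exposure to compounds.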
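Throughout, for viability, T/C: 100% = DMSO vehicle control viability.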

NS(=O)(=O)OCC1CC(n2ccc3c(NC4CCc5ccccc54)ncnc32)CC1O (stereo not given) + NC1CCC(NC2CC2c2ccccc2)CC1
IC50 (second compound 0.1 µM): 521 nM | IC50 (second compound 0.316 µM): 474 nM | IC50 (second compound 1 µM): 518 nM | IC50 (second compound 3.16 µM): 686 nM | IC50 (second compound 10 µM): 907 nM | viability, T/C (second compound 0.1 µM, first compound 0.00949 µM): 113% | viability, T/C (second compound 0.1 µM, first compound 0.03 µM): 96.2% | viability, T/C (second compound 0.1 µM, first compound 0.0949 µM): 85.8% | viability, T/C (second compound 0.1 µM, first compound 0.3 µM): 65.8% | viability, T/C (second compound 0.1 µM, first compound 0.949 µM): 33.2% | viability, T/C (second compound 0.1 µM, first compound 3 µM): 9.95% | viability, T/C (second compound 0.316 µM, first compound 0.00949 µM): 126% | viability, T/C (second compound 0.316 µM, first compound 0.03 µM): 112% | viability, T/C (second compound 0.316 µM, first compound 0.0949 µM): 97.3% | viability, T/C (second compound 0.316 µM, first compound 0.3 µM): 63% | viability, T/C (second compound 0.316 µM, first compound 0.949 µM): 29.6% | viability, T/C (second compound 0.316 µM, first compound 3 µM): 12.1% | viability, T/C (second compound 1 µM, first compound 0.00949 µM): 121% | viability, T/C (second compound 1 µM, first compound 0.03 µM): 103% | viability, T/C (second compound 1 µM, first compound 0.0949 µM): 103% | viability, T/C (second compound 1 µM, first compound 0.3 µM): 58.1% | viability, T/C (second compound 1 µM, first compound 0.949 µM): 38.1% | viability, T/C (second compound 1 µM, first compound 3 µM): 15.6% | viability, T/C (second compound 3.16 µM, first compound 0.00949 µM): 113% | viability, T/C (second compound 3.16 µM, first compound 0.03 µM): 113% | viability, T/C (second compound 3.16 µM, first compound 0.0949 µM): 97.3% | viability, T/C (second compound 3.16 µM, first compound 0.3 µM): 71.2% | viability, T/C (second compound 3.16 µM, first compound 0.949 µM): 42.5% | viability, T/C (second compound 3.16 µM, first compound 3 µM): 14% | viability, T/C (second compound 10 µM, first compound 0.00949 µM): 112% | viability, T/C (second compound 10 µM, first compound 0.03 µM): 102% | viability, T/C (second compound 10 µM, first compound 0.0949 µM): 92.8% | viability, T/C (second compound 10 µM, first compound 0.3 µM): 73% | viability, T/C (second compound 10 µM, first compound 0.949 µM): 49.8% | viability, T/C (second compound 10 µM, first compound 3 µM): 15.1%
